In patent US12358948B2, “Neurotensinergic agonists and methods of using same preventing or treating pain” (priority 2019, dated 2025):
Read-outs that look alike come from different tables or passages of the source. *1 amine or outer side, *2 acyl side, *3 side chain or, on linkers, in order; H or OH if unused. Where a SMILES comes first, the peptide text is derived from it. Bridges are numbered along the chain shown (N, C = ends). [ ]: non-standard residue; d: D form. ξ: configuration not given here. Ala(9-anthryl) = N[C@@H](Cc1c2ccccc2cc2ccccc12)C(=O)O; ξαMeNle(6-ylidene) = CC(CCCC=[*:3])(N[*:1])C(=O)[*:2]; X1 = O=C(C1C[C@@H]2CCCC[C@@H]2N1[*:1])[*:2]; Phe(4-Br) = N[C@@H](Cc1ccc(Br)cc1)C(=O)O; Ala(cPent) = N[C@@H](CC1CCCC1)C(=O)O; Bta = N[C@@H](Cc1csc2ccccc12)C(=O)O; 2Pal = N[C@@H](Cc1ccccn1)C(=O)O; 3Pal = N[C@@H](Cc1cccnc1)C(=O)O; Tic = O=C(O)[C@@H]1Cc2ccccc2CN1; dTic = O=C(O)[C@H]1Cc2ccccc2CN1; AllylGly = C=CC[C@H](N)C(=O)O; Aic = NC1(C(=O)O)Cc2ccccc2C1

Columns and labels:
hNTS1 receptor = biological target: T1, hNTS1 receptor (Homo sapiens, UniProt P30989); assay: Competitive radioligand binding assay on the hNTS1 receptor; details: membranes of CHO-K1 cells expressing hNTS1
T1 construct: membranes prepared from them
Summary of the method: (§1)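 Membranes from CHO-K1 cells expressing hNTS1 (15 µg, […] ¹²⁵I-[Tyr³]-NT) or 1321N1 cells expressing hNTS2 (50 µg, […] radioligand) were incubated with analogues at 10⁻¹¹–10⁻⁴ M for 60 min at 25 °C in Tris-HCl pH 7.5/0.2% BSA. Filtration and γ-counting followed; nonspecific binding was defined with 10⁻⁵ M NT(8-13), and IC50 was obtained by one-site fit.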

hNTS2 receptor = biological target: T2, hNTS2 receptor (Homo sapiens, UniProt O95665); assay: Competitive radioligand binding assay on the hNTS2 receptor; details: for IC50: membranes of 1321N1 cells expressing hNTS2; for Selectivity: ratio IC50 for NTS1 : IC50 for NTS2
T2 construct: membranes prepared from them
Summary of the method: as §1

Sprague-Dawley rats = assay: Tail-flick test (acute thermal pain), intrathecal injection; type: in vivo, rat; details: 61 nmol/kg i.t.
Method: Rats were housed two per cage on Aspen shavings in a quiet room and kept on a 12 h light/dark cycle and allowed ad libitum access to food and water. The experimental procedures in this study were approved by the Animal Care Committee of Université de Sherbrooke and were in accordance with policies and directives of the Canadian Council on Animal Care.
Tail-flick test: The tail flick test was used as outcome measures heat-induced pain in animals and as indicators of a compound's analgesic efficacy.
Acute pain was assessed using the Tail flick test (Tail Flick Analgesia meterV2.00, Colombus Instruments, Columbus, Ohio, USA). Tail flick test measures sensitivity to a high-intensity light beam focused on the rat tail. The tail flick apparatus was set at a light intensity of 6 and a cutoff of 10 seconds. The latency to flick the tail out of the path of the light beam corresponds to the measure of pain sensitivity or analgesia.
Before testing, animals were individually acclimatized to manipulations and behavioral apparatus 5 min/day for three consecutive days. On the test day, latencies baseline measures were taken before drug injection to provide a mean baseline. The compounds were diluted in 0.9% saline at the desired dose. The effects of the compound or saline on thermal nociception were assessed every 10 min for up to 60 min following i.t. administration.
Moreover, tail flick latencies were converted into the percent maximal possible effect (% MPE) at the time of maximal peak of analgesia. % MPE were calculated according to the following formula: % MPE=[(Test latency)−(Saline latency)]/[(Cutoff)−(Saline latency)]×100. Data are expressed as mean±SEM of 5-8 animals for each dose.
Then, ED50 values were determined using the dose-response stimulation log(agonist) vs response (four parameters).
Data are expressed as mean±standard errors of the mean (SEM). All graphs and statistical analysis were performed using GraphPad Prism™ 7 (GraphPad software, La Jolla, CA, USA). […] A two-way ANOVA followed by Tukey's multiple comparisons test was used to determine the significant differences in changes in body temperature between different concentrations of compounds and saline (FIG. 9). The % MPE for the tail-flick test and the areas under the curve for the formalin test were analyzed using a one-way ANOVA followed by a Dunnett's multiple comparisons test to compare different concentrations of compounds and saline treatment (FIGS. 2B, 4B, 7A-B and 8B-D). […] Nonlinear regression using three parameters was performed for % of ileum relaxation and IC50 value was obtained from the resulting dose-response curve (FIG. 11). A difference in response was considered significant with p-values *p<0.05, **p<0.01, ***p<0.001 and **p<0.0001.

[1] = displacement of 125I-[Tyr3]-NT, read-out: IC50 NTS1
[2] = displacement of 125I-[Tyr3]-NT, read-out: IC50 NTS2 (converted)
[3] = IC50 NTS1, displacement of 125I-[Tyr3]-NT
[4] = IC50 NTS2, displacement of 125I-[Tyr3]-NT

T2 sequence (O95665 whole entry): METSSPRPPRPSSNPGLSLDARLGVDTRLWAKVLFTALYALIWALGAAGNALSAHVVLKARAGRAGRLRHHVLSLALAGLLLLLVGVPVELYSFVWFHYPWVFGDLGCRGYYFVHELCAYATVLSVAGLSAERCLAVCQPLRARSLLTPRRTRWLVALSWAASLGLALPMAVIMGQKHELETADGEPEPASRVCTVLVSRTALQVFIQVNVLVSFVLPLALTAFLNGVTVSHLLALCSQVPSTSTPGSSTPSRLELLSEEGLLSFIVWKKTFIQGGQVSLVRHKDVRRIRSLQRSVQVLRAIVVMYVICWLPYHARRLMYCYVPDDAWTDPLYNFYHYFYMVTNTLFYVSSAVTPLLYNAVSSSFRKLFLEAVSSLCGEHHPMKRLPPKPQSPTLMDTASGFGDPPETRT
T1 sequence (P30989 whole entry): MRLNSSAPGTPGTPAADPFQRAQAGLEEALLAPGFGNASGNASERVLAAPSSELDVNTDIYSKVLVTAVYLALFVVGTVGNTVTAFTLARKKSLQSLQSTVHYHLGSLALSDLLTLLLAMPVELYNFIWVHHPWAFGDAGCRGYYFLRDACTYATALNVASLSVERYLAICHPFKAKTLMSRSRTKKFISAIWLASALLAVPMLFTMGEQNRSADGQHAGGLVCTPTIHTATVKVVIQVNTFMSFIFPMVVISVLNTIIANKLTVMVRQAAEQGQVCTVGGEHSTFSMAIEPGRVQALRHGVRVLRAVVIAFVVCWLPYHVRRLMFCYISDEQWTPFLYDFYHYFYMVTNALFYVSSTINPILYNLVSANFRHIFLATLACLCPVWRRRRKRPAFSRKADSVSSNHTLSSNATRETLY

| SMILES | IC50 (hNTS1 receptor; [1]) [nM] | IC50 (hNTS2 receptor; [2]) [nM] | Selectivity (hNTS2 receptor) | Acute pain (tail beam) (i.t.) (Sprague-Dawley rats; rat) | IC50 (hNTS1 receptor; [3]) [nM] | IC50 (hNTS2 receptor; [4]) [nM] | latency of the tail-flick reflex compared to baseline (Sprague-Dawley rats) |
| --- | --- | --- | --- | --- | --- | --- | --- |
| CC(C)C[C@H](NC(=O)[C@H](Cc1ccc(O)cc1)NC(=O)[C@@H]1CC=CCCC(=O)N[C@@H](CCCCN)C(=O)N[C@@H](CCCCN)C(=O)N1)C(=O)O [compound 60, c[K(Pentenoyl)KG(All)]YL] | > 100000 | 47 | >2127.7 | No effect (61 nmol/kg) |  |  |  |
| CC(C)C[C@H](NC(=O)[C@H](Cc1ccc(Br)cc1)NC(=O)[C@@H]1CC=CC[C@H](N)C(=O)N[C@@H](CCCCN)C(=O)N[C@@H](CCCCN)C(=O)N1)C(=O)O [compound 116, c[G(All)KKG(All)]F(4-bromo)L] (H-[AllylGly]KK[AllylGly][Phe(4-Br)]L-OH; staple 1-4) |  |  | >6443 |  | > 100000 | 15.5 | sustainably increased latency |
| NCCCC[C@@H]1NC(=O)[C@H](CCCCN)NC(=O)[C@@H](N)CC=CC[C@@H](C(=O)N[C@@H](Cc2ccc(Br)cc2)C(=O)N[C@@H](CC2CCCC2)C(=O)O)NC1=O [compound 127, c[G(All)KKG(All)]F(4-bromo)A(cyclopentyl)] (H-[AllylGly]KK[AllylGly][Phe(4-Br)][Ala(cPent)]-OH; staple 1-4) |  |  | 49505 |  | > 100000 | 2 | sustainably increased latency |
| CC1(C(=O)N[C@@H](Cc2ccc(O)cc2)C(=O)N[C@@H](CC2CCCC2)C(=O)O)CCCC=CC[C@H](N)C(=O)N[C@@H](CCCCN)C(=O)N[C@@H](CCCCN)C(=O)N1 (stereo partly drawn) [compound 128, c[G(All)KKG((S)-alpha-Me-(4-pentenyl))]YA(cyclopentyl)] (H-[AllylGly]KK[ξαMeNle(6-ylidene)]Y[Ala(cPent)]-OH; staple 1-4) |  |  | 12788 |  | > 100000 | 7.8 | sustainably increased latency |
| CC1(C(=O)N[C@@H](Cc2ccc(Br)cc2)C(=O)N[C@@H](CC2CCCC2)C(=O)O)CCCC=CC[C@H](N)C(=O)N[C@@H](CCCCN)C(=O)N[C@@H](CCCCN)C(=O)N1 (stereo partly drawn) [compound 133, c[G(All)KKG(alpha-Me-(4-pentenyl))]F(4-bromo)A (cyclopentyl)] (H-[AllylGly]KK[ξαMeNle(6-ylidene)][Phe(4-Br)][Ala(cPent)]-OH; staple 1-4) |  |  | 33333 |  | > 100000 | 3 | sustainably increased latency |
| CC(C)C[C@H](NC(=O)[C@H](Cc1c2ccccc2cc2ccccc12)NC(=O)[C@@H]1CC=CC[C@H](N)C(=O)N[C@@H](CCCCN)C(=O)N[C@@H](CCCCN)C(=O)N1)C(=O)O [compound 162, c[G(All)KKG(All)]A(anthryl-) L] (H-[AllylGly]KK[AllylGly][Ala(9-anthryl)]L-OH; staple 1-4) |  |  | 5249 |  | > 100000 | 19.1 |  |
| CC(C)C[C@H](NC(=O)[C@H]1Cc2ccccc2CN1C(=O)[C@@H]1CC=CC[C@H](N)C(=O)N[C@@H](CCCCN)C(=O)N[C@@H](CCCCN)C(=O)N1)C(=O)O [compound 163, c[G(All)KKG(All)]G(Tic)L] (H-[AllylGly]KK[AllylGly][dTic]L-OH; staple 1-4) | > 100000 | 10000 | 10 |  |  |  |  |
| CC(C)C[C@H](NC(=O)C1(NC(=O)[C@@H]2CC=CC[C@H](N)C(=O)N[C@@H](CCCCN)C(=O)N[C@@H](CCCCN)C(=O)N2)Cc2ccccc2C1)C(=O)O [compound 164, c[G(All)KKG(All)]G(indanyl)L] (H-[AllylGly]KK[AllylGly][Aic]L-OH; staple 1-4) | > 100000 | 10000 | 10 |  |  |  |  |
| CC(C)C[C@H](NC(=O)[C@H](Cc1ccccn1)NC(=O)[C@@H]1CC=CC[C@H](N)C(=O)N[C@@H](CCCCN)C(=O)N[C@@H](CCCCN)C(=O)N1)C(=O)O [compound 165, c[G(All)KKG(All)]A(2-pyridyl)L] (H-[AllylGly]KK[AllylGly][2Pal]L-OH; staple 1-4) | > 100000 | 509 | 20 |  |  |  |  |
| CC(C)C[C@H](NC(=O)C1C[C@@H]2CCCC[C@@H]2N1C(=O)[C@@H]1CC=CC[C@H](N)C(=O)N[C@@H](CCCCN)C(=O)N[C@@H](CCCCN)C(=O)N1)C(=O)O (stereo partly drawn) [compound 166, c[G(All)KKG(All)p (octahydroindol)L] (H-[AllylGly]KK[AllylGly][X1]L-OH; staple 1-4) | > 100000 | 33.3 | 3006 |  |  |  |  |
| CC(C)C[C@H](NC(=O)[C@@H]1Cc2ccccc2CN1C(=O)[C@@H]1CC=CC[C@H](N)C(=O)N[C@@H](CCCCN)C(=O)N[C@@H](CCCCN)C(=O)N1)C(=O)O [compound 167, c[G(All)KKG(All)]G(Tic)*L*] (H-[AllylGly]KK[AllylGly][Tic]L-OH; staple 1-4) | > 100000 | 96.2 | 1040 |  |  |  |  |
| CC(C)C[C@H](NC(=O)[C@H](Cc1csc2ccccc12)NC(=O)[C@@H]1CC=CC[C@H](N)C(=O)N[C@@H](CCCCN)C(=O)N[C@@H](CCCCN)C(=O)N1)C(=O)O [compound 168, c[G(All)KKG(All)]A(3-benzothienyl)L] (H-[AllylGly]KK[AllylGly][Bta]L-OH; staple 1-4) | > 100000 | 102 | 979 |  |  |  |  |
| CC(C)C[C@H](NC(=O)[C@H](Cc1cccnc1)NC(=O)[C@@H]1CC=CC[C@H](N)C(=O)N[C@@H](CCCCN)C(=O)N[C@@H](CCCCN)C(=O)N1)C(=O)O [compound 169, c[G(All)KKG(All)]A(3-pyridyl)L] (H-[AllylGly]KK[AllylGly][3Pal]L-OH; staple 1-4) | > 100000 | 234 | 427 |  |  |  |  |
